ChEMBL document CHEMBL4725309, “Potent, non-covalent reversible BTK inhibitors with 8-amino-imidazo[1,5-a]pyrazine core featuring 3-position bicyclic ring substitutes” (Bioorg Med Chem Lett, 2020)

Columns and labels:
[1] = biological target: T1, Cytoplasmic tyrosine-protein kinase BMX (Homo sapiens, UniProt P51813); assay: Inhibition of BMX (unknown origin)
T1 sequence (P51813 whole entry): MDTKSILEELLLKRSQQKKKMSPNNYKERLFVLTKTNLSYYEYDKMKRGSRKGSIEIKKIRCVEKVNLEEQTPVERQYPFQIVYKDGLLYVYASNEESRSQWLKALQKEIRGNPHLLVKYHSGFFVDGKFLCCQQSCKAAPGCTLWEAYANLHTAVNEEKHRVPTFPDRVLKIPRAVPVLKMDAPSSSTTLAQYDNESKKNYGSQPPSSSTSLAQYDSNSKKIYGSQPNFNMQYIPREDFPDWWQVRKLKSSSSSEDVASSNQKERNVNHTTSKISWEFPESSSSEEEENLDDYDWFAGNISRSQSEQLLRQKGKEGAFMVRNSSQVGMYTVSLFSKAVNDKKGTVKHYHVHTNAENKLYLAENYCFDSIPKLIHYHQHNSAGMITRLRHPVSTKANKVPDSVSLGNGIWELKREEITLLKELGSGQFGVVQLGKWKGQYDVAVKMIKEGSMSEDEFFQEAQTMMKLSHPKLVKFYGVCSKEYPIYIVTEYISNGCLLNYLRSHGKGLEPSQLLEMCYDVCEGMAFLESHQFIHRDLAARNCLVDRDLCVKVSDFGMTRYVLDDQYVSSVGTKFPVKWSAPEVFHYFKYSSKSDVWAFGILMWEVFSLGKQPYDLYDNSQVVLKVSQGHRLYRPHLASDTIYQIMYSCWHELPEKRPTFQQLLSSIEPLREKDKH

[2] = biological target: Tyrosine-protein kinase Fyn (Homo sapiens, UniProt P06241); assay: Inhibition of FYN (unknown origin)
Sequence of Tyrosine-protein kinase Fyn (P06241 whole entry): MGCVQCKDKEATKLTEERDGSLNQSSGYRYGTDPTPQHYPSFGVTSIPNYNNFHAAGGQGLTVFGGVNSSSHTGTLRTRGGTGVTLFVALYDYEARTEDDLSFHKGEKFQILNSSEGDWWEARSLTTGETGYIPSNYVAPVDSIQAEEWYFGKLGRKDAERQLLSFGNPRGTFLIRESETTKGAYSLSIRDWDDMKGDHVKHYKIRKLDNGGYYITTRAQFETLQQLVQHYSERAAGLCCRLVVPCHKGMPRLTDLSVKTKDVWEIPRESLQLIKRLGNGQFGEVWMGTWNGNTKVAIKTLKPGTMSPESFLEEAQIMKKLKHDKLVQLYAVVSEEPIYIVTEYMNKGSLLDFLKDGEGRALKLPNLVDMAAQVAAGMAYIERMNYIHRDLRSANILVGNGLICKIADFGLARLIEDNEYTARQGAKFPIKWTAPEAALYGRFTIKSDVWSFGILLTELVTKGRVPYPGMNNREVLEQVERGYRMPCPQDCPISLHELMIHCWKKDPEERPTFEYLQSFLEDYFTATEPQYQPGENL

[3] = Oral bioavailability in Beagle dog at 2 mg/kg; assay type: ADME, organism-based, Canis lupus familiaris; conditions: in vivo
[4] = biological target: Tyrosine-protein kinase Fgr (Homo sapiens, UniProt P09769); assay: Inhibition of FGR (unknown origin)
[5] = Cmax in Wistar Han rat at 5 mg/kg, po; assay type: ADME, organism-based; design: route oral, dose 5 mg/kg; conditions: in vivo
[6] = biological target: Tyrosine-protein kinase Yes (Homo sapiens, UniProt P07947); assay: Inhibition of YES1 (unknown origin)
Sequence of Tyrosine-protein kinase Yes (P07947 whole entry): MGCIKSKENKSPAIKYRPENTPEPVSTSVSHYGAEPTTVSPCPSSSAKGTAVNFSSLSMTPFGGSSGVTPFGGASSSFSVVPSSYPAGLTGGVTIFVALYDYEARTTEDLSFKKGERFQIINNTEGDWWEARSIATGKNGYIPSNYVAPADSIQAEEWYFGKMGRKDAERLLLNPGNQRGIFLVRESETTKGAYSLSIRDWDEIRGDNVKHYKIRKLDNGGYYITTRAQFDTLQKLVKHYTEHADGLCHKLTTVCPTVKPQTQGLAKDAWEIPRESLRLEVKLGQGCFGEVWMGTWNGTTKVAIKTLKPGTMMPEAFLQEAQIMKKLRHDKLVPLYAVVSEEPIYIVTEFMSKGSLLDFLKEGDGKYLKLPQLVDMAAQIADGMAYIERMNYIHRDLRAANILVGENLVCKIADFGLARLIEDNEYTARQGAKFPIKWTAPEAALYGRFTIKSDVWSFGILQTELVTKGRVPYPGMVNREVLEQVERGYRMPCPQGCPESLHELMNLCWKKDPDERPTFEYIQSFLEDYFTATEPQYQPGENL

[7] = system: Rattus norvegicus; assay: Antiarthritic activity in Lewis rat model of collagen-induced arthritis assessed as decrease in paw thickness at 15 to 120 mg/kg, po qd and measured for 30 days; assay type: functional, organism-based; conditions: dose mg/kg 15-120, time 30.0 day
[8] = Oral bioavailability in Wistar Han rat at 5 mg/kg; assay type: ADME, organism-based; conditions: Wistar Han, in vivo
[9] = biological target: Receptor tyrosine-protein kinase erbB-4 (Homo sapiens, UniProt Q15303); assay: Inhibition of ERBB4 (unknown origin)
[10] = biological target: T2, Tyrosine-protein kinase Tec (Homo sapiens, UniProt P42680); assay: Inhibition of TEC (unknown origin)
T2 sequence (P42680 whole entry): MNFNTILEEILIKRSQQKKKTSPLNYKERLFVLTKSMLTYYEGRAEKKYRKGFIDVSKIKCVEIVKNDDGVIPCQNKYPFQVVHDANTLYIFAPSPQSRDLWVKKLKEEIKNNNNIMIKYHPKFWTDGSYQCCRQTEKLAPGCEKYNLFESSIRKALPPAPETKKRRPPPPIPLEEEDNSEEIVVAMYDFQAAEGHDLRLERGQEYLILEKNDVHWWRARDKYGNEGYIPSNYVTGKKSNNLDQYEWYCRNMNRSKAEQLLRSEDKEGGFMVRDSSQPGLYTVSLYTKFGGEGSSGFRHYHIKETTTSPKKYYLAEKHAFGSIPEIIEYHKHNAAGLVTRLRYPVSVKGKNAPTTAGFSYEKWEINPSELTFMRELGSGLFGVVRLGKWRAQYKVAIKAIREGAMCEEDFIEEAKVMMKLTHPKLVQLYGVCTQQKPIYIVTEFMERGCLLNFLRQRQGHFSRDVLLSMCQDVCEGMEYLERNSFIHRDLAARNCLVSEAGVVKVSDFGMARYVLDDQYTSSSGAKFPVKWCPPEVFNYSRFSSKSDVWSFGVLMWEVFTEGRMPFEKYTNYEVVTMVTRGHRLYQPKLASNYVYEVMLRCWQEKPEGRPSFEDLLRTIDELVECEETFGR

[11] = biological target: T3, Tyrosine-protein kinase TXK (Homo sapiens, UniProt P42681); assay: Inhibition of TXK (unknown origin)
T3 sequence (P42681 whole entry): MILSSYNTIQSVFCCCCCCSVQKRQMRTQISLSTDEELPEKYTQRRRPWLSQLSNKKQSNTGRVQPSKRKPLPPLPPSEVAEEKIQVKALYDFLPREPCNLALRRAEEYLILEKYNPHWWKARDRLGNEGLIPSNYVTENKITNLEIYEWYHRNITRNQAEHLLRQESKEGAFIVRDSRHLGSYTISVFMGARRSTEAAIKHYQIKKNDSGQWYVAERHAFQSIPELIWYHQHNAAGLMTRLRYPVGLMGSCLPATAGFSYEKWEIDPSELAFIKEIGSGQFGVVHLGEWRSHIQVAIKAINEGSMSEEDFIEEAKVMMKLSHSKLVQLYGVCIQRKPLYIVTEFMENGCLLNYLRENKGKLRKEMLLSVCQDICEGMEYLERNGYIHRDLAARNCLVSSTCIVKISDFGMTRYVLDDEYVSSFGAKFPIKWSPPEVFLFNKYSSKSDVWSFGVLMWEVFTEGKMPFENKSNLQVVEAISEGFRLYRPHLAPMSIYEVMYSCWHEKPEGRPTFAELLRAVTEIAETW

[12] = AUC in Wistar Han rat at 2 mg/kg, iv; assay type: ADME, organism-based; design: dose 2 mg/kg; conditions: in vivo
[13] = biological target: Tyrosine-protein kinase Lyn (Homo sapiens, UniProt P07948); assay: Inhibition of LYNB (unknown origin)
Sequence of Tyrosine-protein kinase Lyn (P07948 whole entry): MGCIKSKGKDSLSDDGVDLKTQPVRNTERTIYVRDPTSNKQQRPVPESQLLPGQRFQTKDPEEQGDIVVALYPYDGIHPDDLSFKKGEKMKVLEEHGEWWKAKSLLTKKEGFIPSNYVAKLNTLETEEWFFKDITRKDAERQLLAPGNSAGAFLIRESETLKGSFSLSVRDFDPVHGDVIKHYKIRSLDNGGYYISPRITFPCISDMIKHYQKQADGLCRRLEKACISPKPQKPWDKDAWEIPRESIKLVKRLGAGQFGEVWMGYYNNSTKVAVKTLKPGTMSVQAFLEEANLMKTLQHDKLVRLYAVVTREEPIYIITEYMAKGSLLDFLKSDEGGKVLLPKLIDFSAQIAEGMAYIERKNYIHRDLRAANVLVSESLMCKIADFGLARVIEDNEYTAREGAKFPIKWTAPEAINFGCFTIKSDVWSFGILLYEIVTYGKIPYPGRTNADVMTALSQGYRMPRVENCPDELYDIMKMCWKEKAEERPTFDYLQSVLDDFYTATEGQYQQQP

[14] = biological target: Tyrosine-protein kinase Lck (Homo sapiens, UniProt P06239); assay: Inhibition of LCK (unknown origin)
[15] = Clearance in Beagle dog at 1 mg/kg, iv; assay type: ADME, organism-based, Canis lupus familiaris; conditions: in vivo
[16] = AUC in Beagle dog at 1 mg/kg, iv; assay type: ADME, organism-based, Canis lupus familiaris; design: dose 1 mg/kg; conditions: in vivo
[17] = biological target: Tyrosine-protein kinase Blk (Homo sapiens, UniProt P51451); assay: Inhibition of BLK (unknown origin)
Sequence of Tyrosine-protein kinase Blk (P51451 whole entry): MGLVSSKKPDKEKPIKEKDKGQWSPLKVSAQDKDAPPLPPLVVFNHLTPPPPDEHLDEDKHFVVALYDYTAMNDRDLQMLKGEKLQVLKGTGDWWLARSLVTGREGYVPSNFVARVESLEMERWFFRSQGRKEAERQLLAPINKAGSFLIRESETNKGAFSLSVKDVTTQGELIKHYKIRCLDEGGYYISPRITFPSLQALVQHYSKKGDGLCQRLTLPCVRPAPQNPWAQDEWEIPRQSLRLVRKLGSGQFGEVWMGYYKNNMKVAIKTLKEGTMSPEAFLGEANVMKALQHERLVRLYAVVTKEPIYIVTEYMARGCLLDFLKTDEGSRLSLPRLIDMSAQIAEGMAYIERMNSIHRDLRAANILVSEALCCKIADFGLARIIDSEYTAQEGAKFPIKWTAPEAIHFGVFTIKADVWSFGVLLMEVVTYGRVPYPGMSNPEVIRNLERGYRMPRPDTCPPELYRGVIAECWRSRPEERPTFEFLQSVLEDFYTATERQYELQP

[18] = Half life in Beagle dog at 1 mg/kg, iv; assay type: ADME, organism-based, Canis lupus familiaris; conditions: in vivo
[19] = Clearance in Wistar Han rat at 2 mg/kg, iv; assay type: ADME, organism-based; conditions: in vivo
[20] = Tmax in Wistar Han rat at 5 mg/kg, po; assay type: ADME, organism-based; conditions: in vivo
[21] = Volume of distribution at steady state in Wistar Han rat at 2 mg/kg, iv; assay type: ADME, organism-based; conditions: in vivo, read-out: Vdss
[22] = biological target: Protein-tyrosine kinase 6 (Homo sapiens, UniProt Q13882); assay: Inhibition of PTK6 (unknown origin)
Sequence of Protein-tyrosine kinase 6 (Q13882 whole entry): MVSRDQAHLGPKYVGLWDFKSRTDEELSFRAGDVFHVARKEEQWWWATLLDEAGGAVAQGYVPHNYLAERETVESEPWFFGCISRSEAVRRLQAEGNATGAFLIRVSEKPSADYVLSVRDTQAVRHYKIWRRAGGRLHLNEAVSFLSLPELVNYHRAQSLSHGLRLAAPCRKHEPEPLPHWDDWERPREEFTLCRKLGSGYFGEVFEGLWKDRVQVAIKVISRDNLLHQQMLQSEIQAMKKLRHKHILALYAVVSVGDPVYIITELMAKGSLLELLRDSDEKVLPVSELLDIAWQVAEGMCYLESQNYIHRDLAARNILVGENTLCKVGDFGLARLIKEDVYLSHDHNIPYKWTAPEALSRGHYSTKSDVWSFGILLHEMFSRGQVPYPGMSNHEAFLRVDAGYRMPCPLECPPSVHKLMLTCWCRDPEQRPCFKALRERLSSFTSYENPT

[23] = Half life in Wistar Han rat at 2 mg/kg, iv; assay type: ADME, organism-based; conditions: in vivo
[24] = biological target: Tyrosine-protein kinase FRK (Homo sapiens, UniProt P42685); assay: Inhibition of FRK (unknown origin)
Sequence of Tyrosine-protein kinase FRK (P42685 whole entry): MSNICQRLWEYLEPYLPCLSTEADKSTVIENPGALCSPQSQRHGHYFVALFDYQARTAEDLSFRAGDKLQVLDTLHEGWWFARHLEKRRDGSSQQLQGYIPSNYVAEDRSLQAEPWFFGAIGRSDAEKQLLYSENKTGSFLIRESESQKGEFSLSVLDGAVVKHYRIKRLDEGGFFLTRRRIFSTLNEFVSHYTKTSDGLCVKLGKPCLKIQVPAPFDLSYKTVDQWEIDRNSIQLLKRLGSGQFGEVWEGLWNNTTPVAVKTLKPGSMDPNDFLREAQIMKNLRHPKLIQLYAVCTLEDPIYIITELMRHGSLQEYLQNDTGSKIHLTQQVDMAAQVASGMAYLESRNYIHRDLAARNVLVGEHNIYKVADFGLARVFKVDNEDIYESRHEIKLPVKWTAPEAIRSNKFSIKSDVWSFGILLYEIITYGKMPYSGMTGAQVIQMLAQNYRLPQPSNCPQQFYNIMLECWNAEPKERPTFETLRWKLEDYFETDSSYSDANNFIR

[25] = Cmax in Beagle dog at 2 mg/kg, po; assay type: ADME, organism-based, Canis lupus familiaris; design: route oral, dose 2 mg/kg; conditions: in vivo
[26] = Volume of distribution at steady state in Beagle dog at 1 mg/kg, iv; assay type: ADME, organism-based, Canis lupus familiaris; conditions: in vivo, read-out: Vdss
[27] = biological target: Proto-oncogene tyrosine-protein kinase Src (Homo sapiens, UniProt P12931); assay: Inhibition of SRC (unknown origin)
Sequence of Proto-oncogene tyrosine-protein kinase Src (P12931 2-536 limits assumed): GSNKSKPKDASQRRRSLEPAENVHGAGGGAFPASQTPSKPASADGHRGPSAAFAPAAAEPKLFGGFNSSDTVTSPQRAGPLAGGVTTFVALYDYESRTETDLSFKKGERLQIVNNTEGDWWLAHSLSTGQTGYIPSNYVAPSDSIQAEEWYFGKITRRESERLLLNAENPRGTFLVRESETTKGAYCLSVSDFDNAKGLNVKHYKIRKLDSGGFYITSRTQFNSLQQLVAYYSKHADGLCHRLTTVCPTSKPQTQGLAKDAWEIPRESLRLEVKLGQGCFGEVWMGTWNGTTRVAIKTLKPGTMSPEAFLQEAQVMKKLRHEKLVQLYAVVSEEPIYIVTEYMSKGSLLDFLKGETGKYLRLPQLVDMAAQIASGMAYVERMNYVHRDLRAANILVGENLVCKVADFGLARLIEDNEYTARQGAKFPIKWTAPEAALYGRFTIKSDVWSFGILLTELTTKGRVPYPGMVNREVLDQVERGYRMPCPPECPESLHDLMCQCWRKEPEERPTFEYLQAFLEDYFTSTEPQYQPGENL

[28] = biological target: Tyrosine-protein kinase CSK (Homo sapiens, UniProt P41240); assay: Inhibition of CSK (unknown origin)
Sequence of Tyrosine-protein kinase CSK (P41240 whole entry): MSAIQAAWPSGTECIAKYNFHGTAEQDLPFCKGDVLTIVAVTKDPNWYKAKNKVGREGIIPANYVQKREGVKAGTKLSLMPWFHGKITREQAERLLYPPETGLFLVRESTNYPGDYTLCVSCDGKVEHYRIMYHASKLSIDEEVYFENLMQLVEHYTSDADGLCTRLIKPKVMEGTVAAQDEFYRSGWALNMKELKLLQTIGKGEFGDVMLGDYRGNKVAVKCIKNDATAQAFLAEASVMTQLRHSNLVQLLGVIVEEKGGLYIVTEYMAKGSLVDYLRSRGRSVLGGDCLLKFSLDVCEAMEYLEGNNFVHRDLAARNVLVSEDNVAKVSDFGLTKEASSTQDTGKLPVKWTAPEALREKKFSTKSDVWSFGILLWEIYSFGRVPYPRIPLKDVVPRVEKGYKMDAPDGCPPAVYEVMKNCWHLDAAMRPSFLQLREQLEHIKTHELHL

[29] = biological target: Tyrosine-protein kinase Srms (Homo sapiens, UniProt Q9H3Y6); assay: Inhibition of SRMS (unknown origin)
Sequence of Tyrosine-protein kinase Srms (Q9H3Y6 whole entry): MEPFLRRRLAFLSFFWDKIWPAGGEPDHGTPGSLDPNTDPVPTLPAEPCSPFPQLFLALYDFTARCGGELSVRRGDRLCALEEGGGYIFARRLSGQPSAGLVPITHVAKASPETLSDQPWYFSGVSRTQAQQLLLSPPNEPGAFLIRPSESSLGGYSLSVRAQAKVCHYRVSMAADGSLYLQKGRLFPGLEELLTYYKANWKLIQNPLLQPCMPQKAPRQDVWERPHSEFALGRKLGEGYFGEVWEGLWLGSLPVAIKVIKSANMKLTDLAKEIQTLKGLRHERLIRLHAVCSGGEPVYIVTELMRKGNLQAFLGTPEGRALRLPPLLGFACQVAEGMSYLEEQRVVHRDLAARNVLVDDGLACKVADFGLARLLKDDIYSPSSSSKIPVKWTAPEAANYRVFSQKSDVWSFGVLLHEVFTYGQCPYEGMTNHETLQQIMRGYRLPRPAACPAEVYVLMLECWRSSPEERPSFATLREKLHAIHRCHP

[30] = Tmax in Beagle dog at 2 mg/kg, po; assay type: ADME, organism-based, Canis lupus familiaris; conditions: in vivo

COc1cc(C(=O)Nc2cc(C(F)(F)F)ccn2)ccc1-c1nc([C@@H]2CC[C@H]3CCC(=O)N3C2)n2ccnc(N)c12
IC50 [1]: 19 nM | IC50 [2]: 1230 nM | bioavailability [3]: 108% | IC50 [4]: 64 nM | Cmax [5]: 50 nM | IC50 [6]: 54 nM | Activity [7]: Dose-dependent effect | bioavailability [8]: 9.5% | IC50 [9]: 160 nM | IC50 [10]: 67 nM | IC50 [11]: 102 nM | AUC [12]: 1.1 µM·h | IC50 [13]: 162 nM | IC50 [14]: 26 nM | clearance [15]: 20 mL/min/kg | AUC [16]: 1.6 µM·h | IC50 [17]: 101 nM | half-life [18]: 3.4 h | clearance [19]: 53 mL/min/kg | Tmax [20]: 2.1 h | Vd [21]: 4 L/kg | IC50 [22]: 84 nM | half-life [23]: 3 h | IC50 [24]: 154 nM | Cmax [25]: 1100 nM | Vd [26]: 3 L/kg | IC50 [27]: 71 nM | IC50 [28]: 227 nM | IC50 [29]: 16 nM | Tmax [30]: 1.5 h
